Experimental data published in ChEMBL document CHEMBL1201862, “PubChem BioAssay data set” (2004).
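Cells were grown in 96-well plates and exposed to each compound for 48 hours at five concentrations; endpoints were interpolated linearly between bracketing concentrations, or set to the highest concentration if not reached. GI50: concentration for 50% inhibition of growth.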 Calls of active or inactive are those of the source. Cut-off read from the data, not from the text of the source: active = GI50 up to about 1.1 µM and inactive = higher.

Key:
Assay in all cases: NCI-60 cell line screen, 48 h
LXFL 529 = tested on: LXFL 529
TK-10 = tested on: TK-10
DLD-1 = tested on: DLD-1
A498 = tested on: A498
KM-20L2 = tested on: KM-20L2
COLO 205 = tested on: COLO 205
M14 = tested on: M14
SK-OV-3 = tested on: SK-OV-3
CCRF-CEM = tested on: CCRF-CEM
OVCAR-3 = tested on: OVCAR-3
UACC-62 = tested on: UACC-62
RXF 631 = tested on: RXF 631
NCI-H522 = tested on: NCI-H522
HOP-62 = tested on: HOP-62
SK-MEL-5 = tested on: SK-MEL-5
MOLT-4 = tested on: MOLT-4
SF-295 = tested on: SF-295
KM12 = tested on: KM12
SK-MEL-2 = tested on: SK-MEL-2
NCI-H460 = tested on: NCI-H460
SK-MEL-28 = tested on: SK-MEL-28
IGROV-1 = tested on: IGROV-1
CAKI-1 = tested on: CAKI-1
OVCAR-4 = tested on: OVCAR-4
UACC-257 = tested on: UACC-257
RPMI-8226 = tested on: RPMI-8226
HCT-15 = tested on: HCT-15
HOP-18 = tested on: HOP-18
HOP-92 = tested on: HOP-92
U-251 = tested on: U-251
NCI-H23 = tested on: NCI-H23
SN12C = tested on: SN12C
SF-539 = tested on: SF-539
LOX IMVI = tested on: LOX IMVI
786-0 = tested on: 786-0
OVCAR-8 = tested on: OVCAR-8
ACHN = tested on: ACHN
OVCAR-5 = tested on: OVCAR-5
A549 = tested on: A549
UO-31 = tested on: UO-31
SR = tested on: SR
SF-268 = tested on: SF-268
NCI-H226 = tested on: NCI-H226
SW-620 = tested on: SW-620
SNB-19 = tested on: SNB-19

Measured: GI50

Cn1c(O)c(C(=O)NC2CCCCC2)c(=O)n(C)c1=S
5.02 µM: HCT-15
inactive: LXFL 529 2.78 µM | TK-10 6.32 µM | DLD-1 4.93 µM | A498 4.44 µM | KM-20L2 8.04 µM | COLO 205 1.94 µM | M14 8.02 µM | SK-OV-3 5.64 µM | CCRF-CEM 5.83 µM | OVCAR-3 4.93 µM | UACC-62 4.57 µM | RXF 631 4.91 µM | NCI-H522 3.58 µM | HOP-62 4.85 µM | SK-MEL-5 5.05 µM | MOLT-4 3.56 µM | SF-295 3.23 µM | KM12 9.66 µM | SK-MEL-2 5.11 µM | NCI-H460 6.1 µM | SK-MEL-28 4.61 µM | IGROV-1 4.89 µM | CAKI-1 5.89 µM | OVCAR-4 6.75 µM | UACC-257 6.27 µM | RPMI-8226 4.32 µM | HOP-18 3.6 µM | HOP-92 3.59 µM | U-251 4.51 µM | NCI-H23 4.4 µM | SN12C 6.12 µM | SF-539 9.16 µM | LOX IMVI 8.81 µM | 786-0 6.15 µM | OVCAR-8 4.33 µM | ACHN 3.57 µM | OVCAR-5 14.5 µM | A549 3.3 µM | UO-31 3.24 µM | SR 17.9 µM | SF-268 4.56 µM | NCI-H226 8.57 µM | SW-620 5.79 µM | SNB-19 7.11 µM
